Experimental findings from patent publication US12145923B2, “Tetrahydroisoquinoline compound, preparation method therefor, pharmaceutical composition containing same, and use thereof” (SHANGHAI INSTITUTE OF MATERIA MEDICA, CHINESE ACADEMY OF …, priority 2018, dated 2024) are described below.

Like-named read-outs stand apart in the source and are kept apart here.

In one data set the test system is TNF-α secretion in PBMC. The data set is described as follows: Inhibition of LPS-stimulated TNF-α secretion in PBMC (ELISA). The conditions noted are these: Homo sapiens; for inhibition at 1 µM / inhibition at 10 µM: read-out: Inhibition rate %; for IC50: read-out: IC50. In kind it is cell-based. On the technique in general: In an ELISA, binding on a coated surface is turned into a signal by an enzyme label.

Data set [1] relates to tumor necrosis factor-α secretion in RAW 264.7 cells. The data set is described as follows: Inhibition of LPS-stimulated tumor necrosis factor-α secretion in RAW 264.7 cells (ELISA). In kind it is cell-based, mouse. To be noted: Mus musculus, RAW264.7, 4 h, read-out: Tumor necrosis factor-α inhibition rate/%.
Method: After the activation by bacterial lipopolysaccharide (LPS), various inflammatory mediators such as tumor necrosis factor-α will be released; Phosphodiesterase PDE4 is also expressed in macrophages, and the inhibitory activity of the compound on phosphodiesterase PDE4 can be reflected by detecting the secretion of tumor necrosis factor-α.
Under the stimulation of 1 μg/ml LPS (L5886, Sigma, St. Louis, MO, USA), the cells were cultured in a 37° C., 5% CO2 incubator for 4 h. The background control with no stimulant and stimulation control wells were also set, with a total volume of 200 μl. The culture supernatant was collected by centrifugation, and the secretion level of tumor necrosis factor-α in the culture supernatant was detected by enzyme-linked immunosorbent assay. The tumor necrosis factor-α detection kit was purchased from BD Pharmingen (San Diego, CA, USA).
Data set [2] deals with Human PDE4D catalytic domain (Homo sapiens (Human), UniProt Q08499). The data set is described as follows: Scintillation Proximity Assay (SPA), inhibition of PDE4D catalytic domain activity. The class given is biochemical. The conditions noted are these: for inhibition at 1 µM: read-out: PDE4D enzyme activity inhibition rate %.
Method: The scintillation Proximity Assay (SPA) method was used to determine the inhibitory effect of compounds on the activity of PDE4D catalytic domain. Human PDE4D catalytic domain protein was obtained by expression and purification in E. coli. […] [^3H]-cAMP, scintillation beads (RPNQO150, Perkin Elmer), and 96-well scintillation microplates (Isoplate-96, Perkin Elmer) were purchased from Perkin Elmer Company.
Finally, 10 μl [^3H]-cAMP (0.005 μCi/μl) was added and incubated for 30 min at 30° C. in a water bath. 50 μl SPA beads was added to quench the reaction, shaked appropriately, and stood for 20 minutes. A microplate scintillation counter was used.
A further data set has as its system RAW 264.7 cells. The data set is described as follows: Cytotoxicity on RAW 264.7 cells (CCK-8 method). In kind it is cell-based, mouse.
[3] abbreviates: PDE4D, unit given as mM, read-out: IC50.

Chain of Human PDE4D catalytic domain (Q08499 386-715): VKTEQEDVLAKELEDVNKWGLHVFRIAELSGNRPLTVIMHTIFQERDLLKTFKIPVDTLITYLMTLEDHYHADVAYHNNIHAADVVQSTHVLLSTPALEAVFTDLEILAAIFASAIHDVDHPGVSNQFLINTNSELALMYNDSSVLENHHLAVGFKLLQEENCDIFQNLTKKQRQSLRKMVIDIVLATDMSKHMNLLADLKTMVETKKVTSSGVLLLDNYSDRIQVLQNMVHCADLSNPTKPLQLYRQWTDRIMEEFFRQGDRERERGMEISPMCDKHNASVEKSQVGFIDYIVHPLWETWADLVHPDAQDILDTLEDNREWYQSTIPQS
From the text for TNF-α secretion in PBMC: According to the difference in cell density in human blood, PBMC (peripheral blood mononuclear cell, PBMC) was directly separated and purified by gradient centrifugation using lymphocyte separation fluid. The cell type was mononuclear cells in blood, mainly including lymphocytes (T/B), monocytes, macrophages, dendritic cells and other minor cell types, of which lymphocytes account for a large part, which can directly in vitro simulate the blood immune environment.
PBMC cells isolated from human blood were implanted into 96-well plates at 2*10^5/ml; compounds in gradients were added, with at least three replicates for each gradient; After the PBMCs were incubated at 37° C., 5% CO2 for 1 hour, LPS was added (the final concentration was 10 ug/ml) to stimulate PBMC to express TNF-α, and incubated for another 18-20 h at 37° C., 5% C02. The 96-well plate was collected. The background control with no stimulant and stimulation control wells were also set, with a total volume of 200 μl. The culture supernatant was collected by centrifugation, and the expression level of TNF-α in the culture supernatant was detected by ELISA.

By IC50 is commonly meant the concentration that gives 50% inhibition. Consider `COCC(=O)N1CCc2cc(OC)c(OC)cc2C1CCc1c[nH]c2ccccc12` (centres unmarked) [Compound B4, 1-(1-(2-(1H-indol-3-yl)ethyl)-6,7-dimethoxy-3,4-dihydroisoquinoline-2(1H)-yl)-2-methoxyethane-1-one], for which the inhibition at 1 µM is 44.1% in the data set on TNF-α secretion in PBMC (TNF-α secretion in PBMC, 1 μM) and 82.6% in data set [2] (Compound concentration: 1 μM). The inhibition at 10 µM in the data set with TNF-α secretion in PBMC (TNF-α secretion in PBMC, 10 μM) stood at 89.1%. Besides, the IC50 in the data set with TNF-α secretion in PBMC (TNF-α secretion in PBMC) stood at 8020 nM; in data set [2] (setting [3]), 0.0003 mM. Besides, in data set [1] (RAW 264.7, 0.5 μM), the inhibition at 0.5 µM was -9.2%. Also, the inhibition at 5 µM in data set [1] (RAW 264.7, 5 μM) was -11%. Also, the inhibition at 50 µM in data set [1] (RAW 264.7, 50 μM) amounted to 54.5%. In addition, the Cell survival rate/% in the data set with RAW 264.7 cells (RAW 264.7, 0.5 μM) was determined as 116.6%; in the data set with RAW 264.7 cells (RAW 264.7, 5 μM), 82.7%; in the data set on RAW 264.7 cells (RAW 264.7, 50 μM), 71.5%.
`COc1cc2c(cc1OC1CCCC1)C(CCc1c[nH]c3ccc(C)cc13)N(C=O)CC2` (centres unmarked) [Compound C2, 7-(cyclopentyloxy)-6-methoxy-1-(2-(5-methyl-1H-indol-3-yl)ethyl)-3,4-dihydroisoquinoline-2(1H)-formaldehyde]: the inhibition at 1 µM came out at 15.8% with TNF-α secretion in PBMC (TNF-α secretion in PBMC, 1 μM) and 21.5% in data set [2] (Compound concentration: 1 μM). Moreover, the inhibition at 10 µM in the data set with TNF-α secretion in PBMC (TNF-α secretion in PBMC, 10 μM) was determined as 52.4%. In addition, in data set [1] (RAW 264.7, 0.5 μM), the inhibition at 0.5 µM is -18.2%. The inhibition at 5 µM in data set [1] (RAW 264.7, 5 μM) was -24.5%. In data set [1] (RAW 264.7, 50 μM), the inhibition at 50 µM is 97.2%. The Cell survival rate/% was 112.4% with RAW 264.7 cells (RAW 264.7, 0.5 μM); 106.3% in the data set on RAW 264.7 cells (RAW 264.7, 5 μM); 62.7% in the data set on RAW 264.7 cells (RAW 264.7, 50 μM).
With `COc1cc2c(cc1OC1CCCC1)[C@H](CCc1c[nH]c3cc(C)ccc13)N(C=O)CC2` [(S)-C3, (S)-7-(cyclopentyloxy)-6-methoxy-1-(2-(6-methyl-1H-indol-3-yl)ethyl)-3,4-dihydroisoquinoline-2(1H)-formaldehyde], the inhibition at 1 µM in the data set with TNF-α secretion in PBMC (TNF-α secretion in PBMC, 1 μM) worked out at 12.1%; in data set [2] (Compound concentration: 1 μM), 24.1%. Moreover, the inhibition at 10 µM in the data set with TNF-α secretion in PBMC (TNF-α secretion in PBMC, 10 μM) was found to be 79.2%. In data set [1] (RAW 264.7, 0.5 μM), the inhibition at 0.5 µM came to 6.3%. Moreover, the inhibition at 5 µM in data set [1] (RAW 264.7, 5 μM) is 6%. Besides, the inhibition at 50 µM in data set [1] (RAW 264.7, 50 μM) was found to be 95.1%. The Cell survival rate/% with RAW 264.7 cells (RAW 264.7, 0.5 μM) is given as 88.2%; with RAW 264.7 cells (RAW 264.7, 5 μM), 100%; in the data set with RAW 264.7 cells (RAW 264.7, 50 μM) it was 89.2%.
With `COc1cc2c(cc1OCc1ccccc1)C(CCc1c[nH]c3ccccc13)N(C=O)CC2` (centres unmarked) [Compound A5, 1-(2-(1H-indol-3-yl)ethyl)-7-(benzyloxy)-6-methoxy-3,4-dihydroisoquinoline-2(1H)-formaldehyde], in the data set on TNF-α secretion in PBMC (TNF-α secretion in PBMC, 10 μM), the inhibition at 10 µM came out at 23.8%. Moreover, the inhibition at 0.5 µM in data set [1] (RAW 264.7, 0.5 μM) is -0.2%. In addition, in data set [1] (RAW 264.7, 5 μM), the inhibition at 5 µM was -8.1%. In data set [1] (RAW 264.7, 50 μM), the inhibition at 50 µM came out at 79.3%. The inhibition at 1 µM in data set [2] (Compound concentration: 1 μM) was 10.8%. Moreover, the Cell survival rate/% in the data set with RAW 264.7 cells (RAW 264.7, 0.5 μM) is reported as 118.7%; in the data set with RAW 264.7 cells (RAW 264.7, 5 μM), 120.8%; in the data set with RAW 264.7 cells (RAW 264.7, 50 μM), 111.3%.
For `COc1cc2c(cc1OC1CCCC1)C(CCc1c[nH]c3ccc(Br)cc13)N(C=O)CC2` (centres unmarked) [Compound C1, 1-(2-(5-bromo-1H-indol-3-yl)ethyl)-7-(cyclopentyloxy)-6-methoxy-3,4-dihydroisoquinoline-2(1H)-formaldehyde], in the data set on TNF-α secretion in PBMC (PBMC), the inhibition at 1 µM is 27.1% and the inhibition at 10 µM was found to be 72.4%. In data set [1], the inhibition at 0.5 µM is 2.8%, the inhibition at 5 µM is -5.2% and the inhibition at 50 µM was found to be 33.7%. Further, in data set [2], the IC50 was found to be 0.0015 mM and the inhibition at 1 µM was 26.4%. This compound gave a Cell survival rate/% in the data set on RAW 264.7 cells (RAW 264.7, 0.5 μM) of 100.9%. The Cell survival rate/% in the data set on RAW 264.7 cells (RAW 264.7, 5 μM) came out at 125.1%. In addition, in the data set on RAW 264.7 cells (RAW 264.7, 50 μM), the Cell survival rate/% is listed as 110.5%.
In the case of `COc1cc2c(cc1OC)C(CCc1c[nH]c3ccccc13)N(CC1CCOCC1)CC2` (centres unmarked) [Compound B7, 1-(2-(1H-indol-3-yl)ethyl)-6,7-dimethoxy-2-((tetrahydro-2H-pyran-4-yl)methyl)-1,2,3,4-tetrahydroisoquinoline], in the data set with TNF-α secretion in PBMC (TNF-α secretion in PBMC, 10 μM), the inhibition at 10 µM stood at 36.6%. In addition, in data set [1] (RAW 264.7, 0.5 μM), the inhibition at 0.5 µM worked out at 4.3%. Besides, the inhibition at 5 µM in data set [1] (RAW 264.7, 5 μM) came out at 2.3%. Further, the inhibition at 50 µM in data set [1] (RAW 264.7, 50 μM) stood at 82.2%. In addition, in data set [2] (Compound concentration: 1 μM), the inhibition at 1 µM is 6.7%. Also, the Cell survival rate/% was found to be 98.1% with RAW 264.7 cells (RAW 264.7, 0.5 μM); 114.1% in the data set on RAW 264.7 cells (RAW 264.7, 5 μM); 122.6% with RAW 264.7 cells (RAW 264.7, 50 μM).
As to `CCOc1cc2c(cc1OC)CCN(C(=O)COC)[C@H]2CCc1c[nH]c2ccccc12` [(S)-B12, (S)-1-(1-(2-(1H-indol-3-yl)ethyl)-7-ethoxy-6-methoxy-3,4-dihydroisoquinoline-2(1H)-yl)-2-methoxyethane-1-one], the inhibition at 1 µM in the data set on TNF-α secretion in PBMC (TNF-α secretion in PBMC, 1 μM) came out at 44.2%; in data set [2] (Compound concentration: 1 μM), 92.2%. Further, in the data set with TNF-α secretion in PBMC (TNF-α secretion in PBMC, 10 μM), the inhibition at 10 µM was 80.7%. In addition, the inhibition at 0.5 µM in data set [1] (RAW 264.7, 0.5 μM) is -12.7%. The inhibition at 5 µM in data set [1] (RAW 264.7, 5 μM) came to 6.8%. Further, in data set [1] (RAW 264.7, 50 μM), the inhibition at 50 µM is 52.4%. The IC50 in data set [2] (setting [3]) was found to be 0.00025 mM. Moreover, the Cell survival rate/% amounted to 83.8% in the data set on RAW 264.7 cells (RAW 264.7, 0.5 μM); 95.3% with RAW 264.7 cells (RAW 264.7, 5 μM); 75.2% in the data set with RAW 264.7 cells (RAW 264.7, 50 μM).
For `COCC(=O)N1CCc2cc(OC)c(OC)cc2[C@@H]1CCc1c[nH]c2ccccc12` [(S)-B11, (S)-1-(1-(2-(1H-indol-3-yl)ethyl)-6,7-dimethoxy-3,4-dihydroisoquinoline-2(1H)-yl)-2-methoxyethane-1-one], the inhibition at 1 µM in the data set with TNF-α secretion in PBMC (TNF-α secretion in PBMC, 1 μM) stood at 60.1%; in data set [2] (Compound concentration: 1 μM), 82.9%. Also, the inhibition at 10 µM in the data set on TNF-α secretion in PBMC (TNF-α secretion in PBMC, 10 μM) came out at 90.7%. Further, the figures for the IC50 (with TNF-α secretion in PBMC (TNF-α secretion in PBMC); in data set [2] (setting [3])) were 240 nM and 0.00019 mM, respectively. In data set [1] (RAW 264.7, 0.5 μM), the inhibition at 0.5 µM is -7.8%. Further, in data set [1] (RAW 264.7, 5 μM), the inhibition at 5 µM worked out at 1.1%. Further, in data set [1] (RAW 264.7, 50 μM), the inhibition at 50 µM was determined as 51.3%. Further, the Cell survival rate/% in the data set with RAW 264.7 cells (RAW 264.7, 0.5 μM) was determined as 110.9%; with RAW 264.7 cells (RAW 264.7, 5 μM), 111.2%; in the data set on RAW 264.7 cells (RAW 264.7, 50 μM) it was 102.2%.
For `COc1cc2c(cc1OC1CCCC1)C(CCc1c[nH]c3ccccc13)N(C=O)CC2` (centres unmarked) [Compound A2, 1-(2-(1H-indol-3-yl)ethyl)-7-(cyclopentyloxy)-6-metthoxy-3,4-dihydroisoquinoline-2(1H)-formaldehyde], the inhibition at 10 µM in the data set on TNF-α secretion in PBMC (TNF-α secretion in PBMC, 10 μM) turned out to be 43%. For the same compound, the inhibition at 0.5 µM in data set [1] (RAW 264.7, 0.5 μM) is 9.7%. Besides, in data set [1] (RAW 264.7, 5 μM), the inhibition at 5 µM is -4.4%. In data set [1] (RAW 264.7, 50 μM), the inhibition at 50 µM turned out to be 99.4%. Further, the inhibition at 1 µM in data set [2] (Compound concentration: 1 μM) stood at 19.2%. Besides, the IC50 in data set [2] (setting [3]) is 0.00299 mM. In addition, the Cell survival rate/% was found to be 111.6% in the data set on RAW 264.7 cells (RAW 264.7, 0.5 μM); 113% in the data set with RAW 264.7 cells (RAW 264.7, 5 μM); 55.1% in the data set on RAW 264.7 cells (RAW 264.7, 50 μM).
As to `COc1cc2c(cc1OC)C(CCc1c[nH]c3ccccc13)N(CCS(C)(=O)=O)CC2` (centres unmarked) [Compound B8, 1-(2-(1H-indol-3-yl)ethyl)-6,7-dimethoxy-2-(2-(methylsulfonyl)ethyl)-1,2,3,4-tetrahydroisoquinoline], the inhibition at 1 µM in the data set with TNF-α secretion in PBMC (TNF-α secretion in PBMC, 1 μM) was found to be 31.6%; in data set [2] (Compound concentration: 1 μM) it was 68.5%. The inhibition at 10 µM with TNF-α secretion in PBMC (TNF-α secretion in PBMC, 10 μM) worked out at 77.8%. Moreover, in data set [1] (RAW 264.7, 0.5 μM), the inhibition at 0.5 µM amounted to 33.6%. In addition, the inhibition at 5 µM in data set [1] (RAW 264.7, 5 μM) came to 36.1%. Further, the inhibition at 50 µM in data set [1] (RAW 264.7, 50 μM) amounted to 31.8%. Besides, in data set [2] (setting [3]), the IC50 came out at 0.00057 mM. For the same compound, the Cell survival rate/% with RAW 264.7 cells (RAW 264.7, 0.5 μM) amounted to 113.4%; in the data set on RAW 264.7 cells (RAW 264.7, 5 μM) it was 100.7%; in the data set on RAW 264.7 cells (RAW 264.7, 50 μM) it was 100.5%.
